These results are taken from patent US11331364B2, “Use for JNK inhibitor molecules for treatment of various diseases” (Xigen Inflammation Ltd., priority 2014, dated 2022).

Read-outs that look alike come from different tables or passages of the source. Square brackets hold non-standard residues; d marks the D form. Peptide text beside a SMILES is read from it.

The target of one assay is T1, hJNK1 (Homo sapiens, UniProt P45983).
T1 construct: His; purchased Upstate 14-327
The experiment in a line: hJNK1 | IC50. From the text: (§1) Table printed on a drawing sheet, Fig. 4
Head of the field: hJNK1 | IC50
(§2) The patent's description of the figure: FIG. 4: Table illustrating the inhibitory efficacy of several JNK inhibitors according to the present invention, which are fusion proteins of a JNK inhibitory (poly-)peptide sequence and a transporter sequence. Given are the IC50 values in the nM range, the respective standard error of the mean (SEM) and the number of experiments performed (n).
(§3) First copying reader's note: The sheet prints no unit for IC50 (the description says nM range); decimal commas are used, except for three IC50 cells printed with a point (3820.81, 5340.33, 8130.86).
Where the first naming reader finds the target: head: hJNK1 | IC50

In another assay the target is hJNK2 (Homo sapiens, UniProt P45984). The experiment in a line: hJNK2 | IC50.
Excerpt: as §1
Head of the field: hJNK2 | IC50
as §2, §3
Where the first naming reader finds the target: head: hJNK2 | IC50

A further assay deals with hJNK3 (Homo sapiens, UniProt P53779). The experiment in a line: hJNK3 | IC50.
Excerpt: as §1
Head of the field: hJNK3 | IC50
as §2, §3
Where the first naming reader finds the target: head: hJNK3 | IC50

T1 sequence (P45983 whole entry, looked up): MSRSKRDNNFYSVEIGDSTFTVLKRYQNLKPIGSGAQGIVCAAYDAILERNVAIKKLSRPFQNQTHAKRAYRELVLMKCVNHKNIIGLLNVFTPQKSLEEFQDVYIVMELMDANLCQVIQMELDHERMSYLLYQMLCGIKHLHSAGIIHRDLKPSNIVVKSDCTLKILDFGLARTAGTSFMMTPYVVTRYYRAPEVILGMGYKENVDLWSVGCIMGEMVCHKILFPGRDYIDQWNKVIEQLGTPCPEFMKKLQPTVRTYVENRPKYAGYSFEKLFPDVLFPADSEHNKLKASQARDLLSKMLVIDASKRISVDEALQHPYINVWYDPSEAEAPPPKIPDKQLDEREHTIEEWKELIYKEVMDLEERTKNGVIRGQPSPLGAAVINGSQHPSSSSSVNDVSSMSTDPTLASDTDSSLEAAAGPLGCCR
Sequence of hJNK2 (P45984 whole entry, looked up): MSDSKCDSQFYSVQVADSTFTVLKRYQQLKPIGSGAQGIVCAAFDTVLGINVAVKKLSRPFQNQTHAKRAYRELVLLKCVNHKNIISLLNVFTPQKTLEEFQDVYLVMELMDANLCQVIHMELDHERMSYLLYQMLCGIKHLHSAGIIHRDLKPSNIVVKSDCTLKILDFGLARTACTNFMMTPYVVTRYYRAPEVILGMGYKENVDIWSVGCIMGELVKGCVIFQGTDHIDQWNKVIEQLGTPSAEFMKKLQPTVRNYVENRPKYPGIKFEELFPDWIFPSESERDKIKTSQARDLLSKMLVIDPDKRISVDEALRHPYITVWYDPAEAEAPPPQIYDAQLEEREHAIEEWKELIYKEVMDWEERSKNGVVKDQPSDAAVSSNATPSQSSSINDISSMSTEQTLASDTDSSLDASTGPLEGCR
Sequence of hJNK3 (P53779 whole entry, looked up): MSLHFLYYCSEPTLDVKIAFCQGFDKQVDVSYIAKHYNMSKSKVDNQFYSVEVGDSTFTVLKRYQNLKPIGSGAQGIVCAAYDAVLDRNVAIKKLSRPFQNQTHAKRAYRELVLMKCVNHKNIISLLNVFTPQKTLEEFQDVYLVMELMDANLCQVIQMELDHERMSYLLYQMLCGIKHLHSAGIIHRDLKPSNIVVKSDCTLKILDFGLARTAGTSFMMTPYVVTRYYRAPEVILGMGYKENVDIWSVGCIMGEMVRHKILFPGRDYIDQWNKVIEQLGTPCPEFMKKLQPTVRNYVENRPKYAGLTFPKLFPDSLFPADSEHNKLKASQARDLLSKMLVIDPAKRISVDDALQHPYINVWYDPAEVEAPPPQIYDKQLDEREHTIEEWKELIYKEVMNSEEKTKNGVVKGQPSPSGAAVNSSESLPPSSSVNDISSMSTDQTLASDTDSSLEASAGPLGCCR

Usually IC50 stands for the concentration that inhibits the measured activity by half. For the compound `CC(C)C[C@H](NC(=O)[C@H](CC(N)=O)NC(=O)[C@H](CC(C)C)NC(=O)[C@@H](NC(=O)[C@@H](NC(=O)[C@@H]1CCCN1C(=O)[C@H](CCCNC(=N)N)NC(=O)[C@@H](CCCNC(=N)N)NC(=O)[C@H](CCCNC(=N)N)NC(=O)[C@H](CCC(N)=O)NC(=O)[C@@H](CCCNC(=N)N)NC(=O)[C@H](CCCNC(=N)N)NC(=O)[C@H](CCCCN)NC(=O)[C@H](CCCCN)NC(=O)[C@H](N)CCCNC(=N)N)[C@@H](C)O)[C@@H](C)O)C(=O)N[C@H](Cc1ccccc1)C(N)=O` [SEQ ID NO: 175, rKKRrQRrRPTTLNLf] (H-[dR]KKR[dR]QR[dR]RPTTLNL[dF]-NH2), the figures for the IC50 on hJNK1 (read-out: hJNK1 | IC50), at hJNK2 (read-out: hJNK2 | IC50) and at hJNK3 (read-out: hJNK3 | IC50) were 185 nM, 82.3 nM and 60.6 nM, respectively.
For `CC(C)C[C@H](NC(=O)[C@H](CC(N)=O)NC(=O)[C@H](CC(C)C)NC(=O)[C@@H](NC(=O)[C@@H](NC(=O)[C@@H]1CCCN1C(=O)[C@H](CCCNC(=N)N)NC(=O)[C@@H](CCCNC(=N)N)NC(=O)[C@H](CCCNC(=N)N)NC(=O)[C@H](CCCNC(=N)N)NC(=O)[C@H](CCC(N)=O)NC(=O)[C@@H](CCCNC(=N)N)NC(=O)[C@H](CCCNC(=N)N)NC(=O)[C@H](CCCCN)NC(=O)[C@H](CCCCN)NC(=O)[C@H](N)CCCNC(=N)N)[C@@H](C)O)[C@@H](C)O)C(=O)N[C@H](Cc1ccccc1)C(N)=O` [SEQ ID NO: 174, rKKRrQRRrRPTTLNLf] (H-[dR]KKR[dR]QRR[dR]RPTTLNL[dF]-NH2), the IC50 on hJNK1 (read-out: hJNK1 | IC50) came to 334 nM; at hJNK2 (read-out: hJNK2 | IC50), 120 nM; at hJNK3 (read-out: hJNK3 | IC50), 63.1 nM.
For the compound `CC(C)C[C@H](NC(=O)[C@@H](NC(=O)[C@@H](NC(=O)[C@@H]1CCCN1C(=O)[C@H](CCCNC(=N)N)NC(=O)[C@@H](CCCCN)NC(=O)[C@@H]1CCCN1C(=O)[C@H](CCCNC(=N)N)NC(=O)[C@@H](CCCNC(=N)N)NC(=O)[C@H](CCCNC(=N)N)NC(=O)[C@H](CCCNC(=N)N)NC(=O)[C@H](CCC(N)=O)NC(=O)[C@@H](CCCNC(=N)N)NC(=O)[C@H](CCCNC(=N)N)NC(=O)[C@H](CCCCN)NC(=O)[C@H](CCCCN)NC(=O)[C@H](N)CCCNC(=N)N)[C@@H](C)O)[C@@H](C)O)C(=O)N[C@H](CCCNC(=N)N)C(=O)N[C@@H](CC(C)C)C(=O)N[C@H](Cc1ccccc1)C(N)=O` [SEQ ID NO: 173, rKKRrQRRrRPkRPTTLrLf] (H-[dR]KKR[dR]QRR[dR]RP[dK]RPTTL[dR]L[dF]-NH2), the IC50 at hJNK1 (read-out: hJNK1 | IC50) is 88.4 nM; at hJNK2 (read-out: hJNK2 | IC50), 30 nM; at hJNK3 (read-out: hJNK3 | IC50), 16.8 nM.
In the case of `CC(C)C[C@H](NC(=O)[C@H](CC(N)=O)NC(=O)[C@H](CC(C)C)NC(=O)[C@@H](NC(=O)[C@@H](C)NC(=O)[C@@H]1CCCN1C(=O)[C@H](CCCNC(=N)N)NC(=O)[C@H](CCCCN)NC(=O)[C@@H](CCCNC(=N)N)NC(=O)[C@H](CCCNC(=N)N)NC(=O)[C@H](CCC(N)=O)NC(=O)[C@@H](CCCNC(=N)N)NC(=O)[C@H](CCCNC(=N)N)NC(=O)[C@H](CCCCN)NC(=O)[C@H](CCCCN)NC(=O)[C@H](N)CCCNC(=N)N)[C@@H](C)O)C(=O)N[C@H](Cc1ccccc1)C(N)=O` [SEQ ID NO: 184, rKKRrQRrKRPaTLNLf] (H-[dR]KKR[dR]QR[dR]KRP[dA]TLNL[dF]-NH2), the figures for the IC50 on hJNK1 (read-out: hJNK1 | IC50), at hJNK2 (read-out: hJNK2 | IC50) and at hJNK3 (read-out: hJNK3 | IC50) were 2430 nM, 206 nM and 129 nM, respectively.
For `CC(C)C[C@H](NC(=O)[C@H](CC(N)=O)NC(=O)[C@H](CC(C)C)NC(=O)[C@@H](NC(=O)[C@@H](CO)NC(=O)[C@@H]1CCCN1C(=O)[C@H](CCCNC(=N)N)NC(=O)[C@@H](CCCCN)NC(=O)[C@@H]1CCCN1C(=O)[C@H](CCCNC(=N)N)NC(=O)[C@@H](CCCNC(=N)N)NC(=O)[C@H](CCCNC(=N)N)NC(=O)[C@H](CCCNC(=N)N)NC(=O)[C@H](CCC(N)=O)NC(=O)[C@@H](CCCNC(=N)N)NC(=O)[C@H](CCCNC(=N)N)NC(=O)[C@H](CCCCN)NC(=O)[C@H](CCCCN)NC(=O)[C@H](N)CCCNC(=N)N)[C@@H](C)O)C(=O)N[C@H](Cc1ccccc1)C(N)=O` [SEQ ID NO: 185, rKKRrQRRrRPkRPsTLNLf] (H-[dR]KKR[dR]QRR[dR]RP[dK]RP[dS]TLNL[dF]-NH2), the results for the IC50 at hJNK1 (read-out: hJNK1 | IC50), at hJNK2 (read-out: hJNK2 | IC50) and on hJNK3 (read-out: hJNK3 | IC50) were 766 nM, 72.1 nM and 35.5 nM, respectively.
Consider `CC(C)C[C@H](NC(=O)[C@H](CC(N)=O)NC(=O)[C@H](CC(C)C)NC(=O)[C@@H](NC(=O)[C@@H](NC(=O)[C@@H]1CCCN1C(=O)[C@H](CCCNC(=N)N)NC(=O)[C@H](CCCCN)NC(=O)[C@@H]1CCCN1C(=O)[C@@H]1CCCN1C(=O)[C@H](CCCNC(=N)N)NC(=O)[C@H](CCCNC(=N)N)NC(=O)[C@H](CCCNC(=N)N)NC(=O)[C@H](CCC(N)=O)NC(=O)[C@H](CCCNC(=N)N)NC(=O)[C@H](CCCNC(=N)N)NC(=O)[C@H](CCCCN)NC(=O)[C@H](CCCCN)NC(=O)[C@H](CCCNC(=N)N)NC(=O)CN)[C@@H](C)O)[C@@H](C)O)C(=O)N[C@@H](Cc1ccccc1)C(=O)N1CCC[C@H]1C(=O)N[C@@H](CCC(N)=O)C(=O)N[C@H](C(=O)N1CCC[C@H]1C(=O)N[C@@H](CCCNC(=N)N)C(=O)N[C@@H](CO)C(=O)N[C@@H](CCC(N)=O)C(=O)N[C@@H](CC(=O)O)C(N)=O)C(C)C` [SEQ ID NO: 194] (H-GRKKRRQRRRPPKRPTTLNLFPQVPRSQD-NH2), for which the IC50 against hJNK1 is 14 nM; against hJNK2, 12.7 nM; on hJNK3, 2.59 nM.
The matching figures for `CC(C)C[C@H](NC(=O)[C@H](CC(N)=O)NC(=O)[C@H](CC(C)C)NC(=O)[C@@H](NC(=O)[C@@H](NC(=O)[C@@H]1CCCN1C(=O)[C@H](CCCNC(=N)N)NC(=O)[C@H](CCCCN)NC(=O)[C@@H]1CCCN1C(=O)[C@H](CCCNC(=N)N)NC(=O)[C@@H]1CCCN1C(=O)[C@@H]1CCCN1C(=O)[C@H](CCCNC(=N)N)NC(=O)[C@H](CCCNC(=N)N)NC(=O)[C@H](CCCNC(=N)N)NC(=O)[C@H](CCC(N)=O)NC(=O)[C@H](CCCNC(=N)N)NC(=O)[C@H](CCCNC(=N)N)NC(=O)[C@H](CCCCN)NC(=O)[C@H](CCCCN)NC(=O)[C@H](CCCNC(=N)N)NC(=O)CN)[C@@H](C)O)[C@@H](C)O)C(=O)N[C@@H](Cc1ccccc1)C(=O)N1CCC[C@H]1C(=O)N[C@@H](CCC(N)=O)C(=O)N[C@H](C(=O)N1CCC[C@H]1C(=O)N[C@@H](CCCNC(=N)N)C(=O)N[C@@H](CO)C(=O)N[C@@H](CCC(N)=O)C(=O)N[C@@H](CC(=O)O)C(N)=O)C(C)C` [SEQ ID NO: 196] (H-GRKKRRQRRRPPRPKRPTTLNLFPQVPRSQD-NH2): 42.2 nM, 8.43 nM and 5.22 nM.
As for `C[C@H](NC(=O)[C@H](C)NC(=O)[C@@H](C)NC(=O)[C@H](C)NC(=O)[C@H](C)NC(=O)[C@@H](CCCCN)NC(=O)[C@@H]1CCCN1C(=O)[C@H](CCCNC(=N)N)NC(=O)[C@@H](CCCNC(=N)N)NC(=O)[C@H](CCCNC(=N)N)NC(=O)[C@H](CCCNC(=N)N)NC(=O)[C@H](CCC(N)=O)NC(=O)[C@@H](CCCNC(=N)N)NC(=O)[C@H](CCCNC(=N)N)NC(=O)[C@H](CCCCN)NC(=O)[C@H](CCCCN)NC(=O)[C@H](N)CCCNC(=N)N)C(=O)N[C@@H](CC(N)=O)C(=O)N[C@@H](C)C(=O)N[C@H](Cc1ccccc1)C(N)=O` [compound 200, NH2 r K K R r Q R R r R P k A A a A A N A f CONH2] (H-[dR]KKR[dR]QRR[dR]RP[dK]AA[dA]AANA[dF]-NH2), the IC50 against hJNK2 came to 3320 nM.
